Source: ChEMBL document CHEMBL1777806, “Three new cytotoxic aryltetralin lignans from Sinopodophyllum emodi” (Bioorg Med Chem Lett, 2011)

Columns and labels:
KB = assay: Cytotoxicity against human KB cells after 72 hrs by MTT assay; type: functional, cell-based
HeLa = assay: Cytotoxicity against human HeLa cells after 72 hrs by MTT assay; type: functional, cell-based

| SMILES | IC50 (KB) | IC50 (HeLa) |
| --- | --- | --- |
| COc1cc([C@@H]2c3cc4c(cc3[C@H](O[C@@H]3O[C@H](CO[C@@H]5O[C@H](CO)[C@@H](O)[C@H](O)[C@H]5O)[C@@H](O)[C@H](O)[C@H]3O)[C@H]3COC(=O)[C@@H]23)OCO4)cc(OC)c1OC | > 100 µM | > 100 µM |
| COc1cc([C@@H]2c3cc4c(cc3C[C@H]3COC(=O)[C@@H]32)OCO4)cc(OC)c1O[C@@H]1O[C@H](CO)[C@@H](O)[C@H](O)[C@H]1O | 2.09 µM | 0.87 µM |
| COc1cc([C@@H]2c3cc4c(cc3[C@H](O)[C@H]3COC(=O)[C@H]23)OCO4)cc(OC)c1OC(C)=O | 0.05 µM | 0.076 µM |
| COc1cc([C@@H]2c3cc4c(cc3[C@H](O[C@@H]3O[C@H](CO[C@@H]5O[C@H](CO)[C@@H](O)[C@H](O)[C@H]5O)[C@@H](O)[C@H](O)[C@H]3O)[C@H]3COC(=O)[C@@H]23)OCO4)cc(OC)c1O [SINOLIGNAN B] | > 100 µM | > 100 µM |
| COc1cc([C@@H]2c3cc(O)c(O)cc3[C@H](O)[C@H]3COC(=O)[C@H]23)cc(OC)c1OC [6,7-O,O-DEMETHYLENEPODOPHYLLOTOXIN] | > 100 µM | > 100 µM |
| COc1cc(-c2c3c(c(O)c4cc5c(cc24)OCO5)COC3=O)cc(OC)c1OC [DEHYDROPODOPHYLLOTOXIN] | 9.79 µM | 8.28 µM |
| COc1cc(-c2c3c(c(O)c4cc5c(cc24)OCO5)COC3=O)cc(OC)c1O | 84.7 µM | > 100 µM |
| COc1cc([C@@H]2c3cc4c(cc3[C@@H](O[C@@H]3O[C@H](CO)[C@@H](O)[C@H](O)[C@H]3O)[C@H]3COC(=O)[C@H]23)OCO4)cc(OC)c1O | < 0.01 µM | 0.048 µM |
| COc1cc([C@@H]2c3cc4c(cc3[C@H](O[C@@H]3O[C@H](CO)[C@@H](O)[C@H](O)[C@H]3O)[C@H]3COC(=O)[C@H]23)OCO4)cc(OC)c1O | 9.51 µM | 5.33 µM |
| COc1cc([C@@H]2c3cc4c(cc3[C@H](O)[C@H]3COC(=O)[C@H]23)OCO4)cc(OC)c1OC [PODOFILOX] | 0.056 µM | 0.069 µM |
| COc1cc([C@@H]2c3cc4c(cc3[C@H](O[C@@H]3O[C@H](COC(C)=O)[C@@H](O)[C@H](O)[C@H]3O)[C@H]3COC(=O)[C@H]23)OCO4)cc(OC)c1OC [SINOLIGNAN A] | 8.76 µM | 3.77 µM |
| COc1cc([C@@H]2c3cc4c(cc3[C@H](O[C@@H]3O[C@H](CO)[C@@H](O)[C@H](O)[C@H]3O)[C@H]3COC(=O)[C@H]23)OCO4)cc(OC)c1OC | 9.25 µM | 6.65 µM |
| COc1cc([C@@H]2c3cc4c(cc3[C@H](O)[C@H]3COC(=O)[C@H]23)OCO4)cc(OC)c1O | 0.064 µM | 0.08 µM |
| COc1cc([C@@H]2c3cc4c(cc3[C@@H](O[C@@H]3O[C@@H]5CO[C@@H](C)O[C@H]5[C@H](O)[C@H]3O)[C@H]3COC(=O)[C@H]23)OCO4)cc(OC)c1O [ETOPOSIDE] | 10 µM | 4 µM |
| COc1cc([C@@H]2c3cc4c(cc3C[C@H]3COC(=O)[C@@H]32)OCO4)cc(OC)c1OC [DESOXYPODOPHYLLOTOXIN] | 0.0089 µM | 0.0069 µM |
| COc1cc([C@@H]2c3cc4c(cc3C[C@H]3COC(=O)[C@@H]32)OCO4)cc(OC)c1O [4'-DEMETHYLDEOXYPODOPHYLLOTOXIN] | 0.0078 µM | 0.074 µM |
| COc1cc([C@@H]2c3cc(O)c(O)cc3[C@H](O)[C@H]3COC(=O)[C@H]23)cc(OC)c1O | > 100 µM | 79.6 µM |
| COc1cc([C@@H]2c3cc4c(cc3C(=O)[C@@H]3COC(=O)[C@H]23)OCO4)cc(OC)c1OC [ISOPICROPODOPHYLLONE] | > 100 µM | 32.1 µM |
